Reference: article PMC12057359, “Inhibitory effect of copper chelators on the budding in Candida albicans” (Antimicrobial Agents and Chemotherapy, 2025)
Where a name gives a salt, the structure may show the parent alone. Read-outs that look alike come from different tables or passages of the source.

Experiments:
[1] = tested on: C. albicans JCM1542; test: iHOPE antimicrobial microdilution assay (turbidity OD600); format: cell-based, Candida albicans; details: for IC50: Candida albicans, JCM1542, MOPS-RPMI medium, 28°C, 24 h, OD600, standard deviation in parentheses, n = 3, read-out: IC50 against C. albicans JCM1542
[2] = tested on: C. glabrata JCM3761; test: as above; format: cell-based, Candida glabrata; details: Nakaseomyces glabratus, JCM3761; MOPS-RPMI medium, 24 h; SD in parentheses, n = 3; read-out: IC50 against C. glabrata JCM3761
[3] = tested on: C. tropicalis JCM1541; test: as above; format: cell-based; details: Candida tropicalis, JCM1541; MOPS-RPMI medium, 24 h; SD in parentheses, n = 3; read-out: IC50 against C. tropicalis JCM1541
[4] = tested on: C. auris Ci6684; test: as above; format: cell-based, Candida auris; details: Candidozyma auris, CI6684; MOPS-RPMI medium, 24 h; SD in parentheses, n = 3; read-out: IC50 against C. auris Ci6684
[5] = tested on: C. auris VPCI673; test: as above; format: cell-based, Candida auris; details: Candidozyma auris, VPCI673; MOPS-RPMI medium, 24 h; SD in parentheses, n = 3; read-out: IC50 against C. auris VPCI673
[6] = tested on: A. fumigatus Af293; test: iHOPE antimicrobial microdilution assay; format: cell-based, Aspergillus fumigatus; details: Aspergillus fumigatus, AF293; SD in parentheses, n = 3; read-out: IC50 against A. fumigatus Af293
[7] = tested on: P. oryzae Kita-1; test: microbe, parasite or virus in culture; format: cell-based, Pyricularia oryzae; details: Pyricularia oryzae, KITA1, read-out: IC50 against P. oryzae Kita-1
[8] = tested on: S. aureus 209P; test: iHOPE antimicrobial microdilution assay; format: cell-based, Staphylococcus aureus; details: Staphylococcus aureus, 209P; SD in parentheses, n = 3; read-out: IC50 against S. aureus 209P
[9] = tested on: E. coli HO-141; test: iHOPE antimicrobial microdilution assay; format: cell-based, Escherichia coli; details: Escherichia coli, HO141; SD in parentheses, n = 3; read-out: IC50 against E. coli HO-141
[10] = iHOPE in vitro cytotoxicity assessment (Cell Count Reagent SF); format: cell-based, human; details: human
Protocol: The method for in vitro cytotoxicity assessment using Cell Count Reagent SF (Nacalai Tesque) has been described previously ([15]). […] Test compounds were added to the culture medium, and then the plates were incubated at 28°C for 24 h.

[11] = tested on: C. albicans JCM1542; format: cell-based, Candida albicans
[12] = SD in parentheses, n = 3, read-out: IC50 against HL-60 RCB0041 (cytotoxicity)

Compound	IC50 [1] [nM]	IC50 [2] [nM]	IC50 [3] [nM]	IC50 [4] [nM]	IC50 [5] [nM]	IC50 [10, 12] [nM]	also measured
OC(Cn1cncn1)(Cn1cncn1)c1ccc(F)cc1F [Fluconazole, fluconazole]	390	690	400	> 30000	> 30000	–	IC50 [6]: > 30000 nM; IC50 [7]: > 30000 nM; IC50 [8]: > 30000 nM; IC50 [9]: > 30000 nM; IC50 ([10]; HL-60 RCB0041 cells (promyelocytic leukemia cell line), SD in parentheses, n = 3, read-out: IC50 against HL-60 RCB0041 (cytotoxicity)): > 30000 nM; morphological change induced in C. albicans [11]: yeast-rich morphology
CC(C)=CCC/C(C)=C/CC/C(C)=C/CO [farnesol]	–	–	–	–	–	–	growth form of C. albicans under hyphal growth conditions ([11]; 3 µM, MOPS-RPMI): the cells grew as yeast form
[C-]#[N+][C@H](C)CC(=O)Nc1cccc(NC(=O)C[C@@H](C)[N+]#[C-])c1 [14a]	54	–	–	–	–	> 30000	–
[C-]#[N+][C@H](C)CC(=O)NCc1ccc(NC(=O)C[C@@H](C)[N+]#[C-])cc1 [10a]	380	–	–	–	–	> 30000	–
[C-]#[N+][C@@H](C)CC(=O)NCc1ccc(NC(=O)C[C@H](C)[N+]#[C-])cc1 [10b]	190	–	–	–	–	> 30000	–
[C-]#[N+][C@@H](C)CC(=O)N[C@H]1CC[C@H](NC(=O)C[C@H](C)[N+]#[C-])CC1 [16b]	610	–	–	–	–	> 30000	–
[C-]#[N+][C@@H](C)CC(=O)NCc1ccc(N)cc1 [8b]	1800	–	–	–	–	> 30000	antifungal activity / inhibition of budding against C. albicans (in words) ([1]; C. albicans JCM1542): weak antifungal activity and inhibition of budding
[C-]#[N+][C@H](C)CC(=O)N[C@H]1CC[C@@H](NC(=O)C[C@@H](C)[N+]#[C-])CC1 [15a]	15	8.2	32	49	64	> 30000	–
[C-]#[N+][C@@H](C)CC(=O)NCCc1ccc(NC(=O)C[C@H](C)[N+]#[C-])cc1 [12b]	12	12	12	55	140	> 30000	–
[C-]#[N+][C@H](C)CC(=O)NCCc1ccc(NC(=O)C[C@@H](C)[N+]#[C-])cc1 [12a]	12	10	13	58	180	> 30000	–
NCCNCCNCCN [Trientine, trientine hydrochloride]	570	120	18000	> 100000	> 100000	–	IC50 [6]: 8100 nM; IC50 [7]: > 100000 nM; IC50 [8]: > 100000 nM; IC50 [9]: > 100000 nM; IC50 [10]: > 100000 nM; morphological change induced in C. albicans [11]: morphological changes similar to those observed with SF2768
[C-]#[N+][C@@H](C)CC(=O)Nc1cccc(NC(=O)C[C@H](C)[N+]#[C-])c1 [14b]	20	–	–	–	–	> 30000	–
[C-]#[N+][C@H](C)CC(=O)Nc1ccc(NC(=O)C[C@@H](C)[N+]#[C-])cc1 [13a]	410	–	–	–	–	> 30000	–
Nc1nc(=O)[nH]cc1F [5-FC, 5-fluorocytosine]	190	81	110	370	270	–	IC50 [6]: 15000 nM; IC50 [7]: > 30000 nM; IC50 [8]: > 30000 nM; IC50 [9]: > 30000 nM; IC50 [10]: > 30000 nM; morphological change induced in C. albicans ([11]; C. albicans JCM1542, MOPS-RPMI medium, 24 h): hyphal-rich morphology
